The results in this text go back to ChEMBL document CHEMBL6096696, “Structure-Activity Relationship Studies of an Autophagy Inhibitor That Targets the ATG14L-Beclin1 Protein-Protein Interaction Reveal Modifications That Improve Potency and Solubility and Maintain Selectivity” (J Med Chem, 2025).

Series [1] has as its system HeLa. Kind of series: Inhibition of autophagy in human HeLa cells expressing eGFP-LC3 assessed as increase in LC3-II at 100 uM preincubated for 20 hrs followed by chloroquine addition and measured after 4 hrs by Hoechst 33342 staining based automated fluorescence microscopy analysis. Format: functional, cell-based. As to conditions: time 24.0 hrs.
In series [2] the test system is HEK293T. Kind of series: Inhibition of C-terminal Nano-luc tagged ATG14L/C-terminal Halo-tagged Beclin 1 (unknown origin) PPI tranfected with HEK293T cells using […] at 100 uM incubated for 24 hrs by […] assay relative to control. In kind it is cell-based. Conditions: Homo sapiens, values are per cent of control.
Series [3] concerns the target Beclin 1-associated autophagy-related key regulator (Homo sapiens) (UniProt Q6ZNE5). Kind of series: Induction of stabilization of ATG14L in human A549 cells assessed as increase in melting temperature at 100 uM incubated for 24 hrs by CETSA method. In kind it is cell-based.
Series [4] in a line: Kinetic aqueous solubility of compound in PBS at pH 7.4 by absorbance based analysis. Conditions: read-out: Kinetic_solubility. In kind it is physicochemical.
For series [5], the system named is A549. Kind of series: Inhibition of autophagy in human A549 cells assessed as increase in fluorescence at 100 uM preincubated with DQ-BSA for 1 hr followed by compound addition and measured after 4 hrs by Hoechst 33342 staining based automated fluorescence microscopy analysis. In kind it is functional, cell-based.
The test system of series [6] is A549. Kind of series: Inhibition of autophagy in human A549 cells assessed as increase in fluorescence at 100 uM measured after 4 hrs by Hoechst 33342 staining based […] microscopy analysis. In kind it is functional, cell-based.
Series [7] in a line: Inhibition of C-terminal Nano-luc tagged ATG14L/C-terminal Halo-tagged Beclin 1 (unknown origin) PPI tranfected with HEK293T cells using […] incubated for 24 hrs by […] assay. In kind it is cell-based, Homo sapiens.
Series [8] relates to HeLa. Kind of series: Inhibition of autophagy in human HeLa cells expressing eGFP-LC3 assessed as decrease in GFP puncta/cell at 100 uM preincubated for 20 hrs followed by chloroquine addition and measured after 4 hrs by Hoechst 33342 staining based automated fluorescence microscopy analysis. Format: functional. As to conditions: time 24.0 hrs.
In series [9] the test system is A549. Kind of series: Inhibition of autophagy in human A549 cells assessed as increase in fluorescence at 12.5 uM preincubated with DQ-BSA for 1 hr followed by compound addition and measured after 4 hrs by Hoechst 33342 staining based automated fluorescence microscopy analysis. In kind it is functional, cell-based.
The subject of series [10] is HeLa. Kind of series: Cytotoxicity against human HeLa cells expressing eGFP-LC3 at 100 uM. Format: functional, cell-based.
The nature of series [11]: Selectivity ratio of inhibition of C-terminal Nano-luc tagged UVRAG/C-terminal Halo-tagged Beclin 1 (unknown origin) PPI tranfected with HEK293T cells to inhibition of C-terminal Nano-luc tagged ATG14L/C-terminal Halo-tagged Beclin 1 (unknown origin) PPI tranfected with HEK293T cells.
In series [12] the test system is HEK293T. Kind of series: Inhibition of C-terminal Nano-luc tagged UVRAG/C-terminal Halo-tagged Beclin 1 (unknown origin) PPI tranfected with HEK293T cells using […] at 100 uM incubated for 24 hrs by […] assay relative to control. Format: cell-based. Conditions: Homo sapiens, values are per cent of control.
The nature of series [13]: Inhibition of C-terminal Nano-luc tagged UVRAG/C-terminal Halo-tagged Beclin 1 (unknown origin) PPI tranfected with HEK293T cells using […] incubated for 24 hrs by […] assay. In kind it is cell-based, Homo sapiens.
Series [14] deals with A549. Kind of series: Inhibition of autophagy in human A549 cells assessed as increase in fluorescence at 20 uM preincubated with DQ-BSA for 1 hr followed by compound addition and measured after 4 hrs by Hoechst 33342 staining based automated fluorescence microscopy analysis. Format: functional, cell-based.
Series [15] deals with A549. Kind of series: Inhibition of autophagy in human A549 cells assessed as increase in fluorescence at 100 nM preincubated with DQ-BSA for 1 hr followed by compound addition and measured after 4 hrs by Hoechst 33342 staining based automated fluorescence microscopy analysis. Format: functional, cell-based.

The source made the active and inactive calls. No cut-off for these calls is given here.

Sequence of Beclin 1-associated autophagy-related key regulator (Homo sapiens) (Q6ZNE5 whole entry): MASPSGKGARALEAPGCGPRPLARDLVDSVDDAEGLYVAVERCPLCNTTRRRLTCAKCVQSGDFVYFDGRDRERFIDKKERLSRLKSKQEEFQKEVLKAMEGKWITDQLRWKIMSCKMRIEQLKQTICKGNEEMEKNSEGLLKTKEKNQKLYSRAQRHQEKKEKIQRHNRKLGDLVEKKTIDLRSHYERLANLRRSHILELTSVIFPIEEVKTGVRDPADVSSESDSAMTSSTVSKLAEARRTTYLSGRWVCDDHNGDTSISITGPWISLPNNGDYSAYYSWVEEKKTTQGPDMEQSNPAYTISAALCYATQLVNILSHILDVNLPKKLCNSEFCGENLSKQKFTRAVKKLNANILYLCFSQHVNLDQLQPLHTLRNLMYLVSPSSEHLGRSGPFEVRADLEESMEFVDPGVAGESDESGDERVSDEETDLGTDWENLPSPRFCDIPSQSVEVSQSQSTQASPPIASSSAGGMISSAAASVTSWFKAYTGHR

On to `CCN1C(=O)COc2ccc(S(=O)(=O)Nc3cccc(C)c3C)cc21`, for which, in the series with HeLa [1], the inhibition entry was “Active”. Also, the residual binding, % of control in the series with HEK293T [2] was 95.9%. Also, in series [3], the outcome was inactive. In addition, in series [4], the solubility kinetic was over 100 µM.
On to `CCCN1C(=O)COc2ccc(S(=O)(=O)Nc3cccc(C)c3C)cc21`, for which the inhibition entry in the series on HeLa [1] and in the series with A549 [6] was “Active” in each case. The molecule further came in with a residual binding, % of control with HEK293T [2] of 72.3%. Further, the inhibition result was “Active; Compound Showed Normal Functioning Of Lysosomes And Endosomal Trafficking” in the series with A549 [5] and “Active; Compared With Chloroquine And Compound 1E” in the series on HeLa [8]. Also, in series [3], the result was Active. In addition, the solubility kinetic in series [4] was over 100 µM. In addition, in series [7], the IC50 (as a rule, the concentration that gives 50% inhibition) turned out to be 56.3 µM.
On to `C[C@@H]1COCCN1c1cc(=O)n2c(n1)N(Cc1cncc(Cl)c1)[C@H](C(F)(F)F)CC2`, for which the inhibition result in the series with A549 [9] is “inactive”.
Consider `CCCN1C(=O)COc2ccc(-c3cccc(C)c3C)cc21`, for which, in the series on HeLa [10], the outcome was Active. The Selectivity ratio in series [11] stood at 1.23. Moreover, the values for the residual binding, % of control in the series with HEK293T [2] and with HEK293T [12] were 63% and 77.7%, respectively. Further, in the series with A549 [5], the inhibition result is “Active”. The solubility kinetic in [4] is over 100 µM. Besides, the IC50 was determined as 32.3 µM in series [7] and 42.2 µM in series [13].
Turning to `CCN(CC)CCCC(C)Nc1ccnc2cc(Cl)ccc12` (centres undefined), in the series on A549 [14], the inhibition result was “inactive”.
With `Nc1ncc(-c2ccnc(Nc3ccncc3)n2)c(CC2CC2)n1`, in the series on A549 [9], the inhibition result was “inactive”.
Consider `CO/C1=C\C(C)=C\[C@@H](C)[C@@H](O)[C@@H](C)C/C(C)=C/C=C/[C@H](OC)[C@@H]([C@@H](C)[C@@H](O)[C@H](C)[C@@]2(O)C[C@@H](O)[C@H](C)[C@@H](C(C)C)O2)OC1=O`, for which the inhibition result in the series on A549 [15] was “inactive”.
